Test results from patent publication US20240343733A1, “COMPOUNDS FOR TARGETING DEGRADATION OF IRAK4 PROTEINS” (BIOGEN MA INC., priority 2021, published 2024).

Molecular target: T1, IRAK4 (Canis lupus familiaris, UniProt A0A8I3S726)
T1 sequence (A0A8I3S726 1-460): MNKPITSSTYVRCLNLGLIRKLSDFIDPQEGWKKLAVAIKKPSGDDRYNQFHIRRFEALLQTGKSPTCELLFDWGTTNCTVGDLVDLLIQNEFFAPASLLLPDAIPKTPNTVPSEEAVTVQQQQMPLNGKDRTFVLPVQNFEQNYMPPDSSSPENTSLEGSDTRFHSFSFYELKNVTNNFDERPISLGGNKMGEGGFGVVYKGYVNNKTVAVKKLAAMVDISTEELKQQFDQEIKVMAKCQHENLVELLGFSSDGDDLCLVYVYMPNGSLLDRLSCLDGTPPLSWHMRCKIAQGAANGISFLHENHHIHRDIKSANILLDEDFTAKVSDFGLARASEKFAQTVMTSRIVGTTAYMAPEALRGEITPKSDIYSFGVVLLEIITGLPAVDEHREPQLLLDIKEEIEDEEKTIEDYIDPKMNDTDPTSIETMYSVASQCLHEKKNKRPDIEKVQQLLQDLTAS
Experiment: Pharmacodynamics (PD) in Male Beagle Dogs, IRAK4 quantitation in PBMCs by nanoLC-MS/MS
Type: in vivo
Details: male beagle dog PBMCs
Procedure: Assay 4. Pharmacodynamics (PD) in Male Beagle Dogs
Pharmacodynamics (PD) biomarker analyses of male beagle dog PMBCs from the whole blood timepoint samples collected in Assay 3 were performed.
For isolation of PBMCs, the whole blood timepoint samples described in Assay 3 above were processed immediately to ensure high viability of PBMCs. All the samples were processed at 18° C. to 20° C. The freshly collected whole blood (2 mL) was mixed with an equal volume of phosphate buffered saline. This mixture was inverted several times to ensure thorough mixing. The Histopaque® (Catalog no. 10771, Sigma-Aldrich, St. Louis, MO) bottle was inverted several times to ensure uniformity of the medium. A sterile syringe was used to draw 2 mL of Histopaque® medium and added to a sterile centrifuge tube. The whole blood-PBS sample (4 ml) was carefully layered on top of the Histopaque® medium, without mixing. The tube was centrifuge at 600 g for 30 to 40 min at 18° C. to 20° C. with the brakes turned off. The upper layer containing plasma and platelets was withdrawn slowly using a sterile pipette, leaving the PBMC cell layer undisturbed at the interface. The PBMC layer was transferred to a sterile centrifuge tube using a sterile pipette. The PBMCs were washed with 3 volumes (˜6 mL) of Hank's balanced salt solution (HBSS) (Gibco, Grand Island, NY) in the centrifuge tube. The cells were suspended by gently drawing them in and out of a pipette. The tubes were centrifuged at 250 g for 10 to 15 minutes at 18° C. to 20° C. and the supernatant discarded. The PBMCs were then resuspended in 6 to 8 ml of HBSS. For cell counting, the cell suspension was diluted 1:1 with Trypan Blue dye and mixed well. The cell numbers (live and dead) were counted, and cell viability calculated. The cell numbers and cell viability of each PBMC sample were recorded. The tube was centrifuged again at 500 g for 10 min at 18° C. to 20° C. The supernatant was removed, and the cell pellet was frozen at −80° C.
The frozen dog PBMC cell pellets were homogenized in two pellet volumes of lysis buffer (100 mM triethylammonium bicarbonate (TEAB), 4% SDS, 1× Roche protease inhibitor cocktail) by sonicating at 150 watt for 10 seconds in a 4° C. water bath using an E220 focused-ultrasonicator (Covaris, Woburn, MA, USA). Lysates were then clarified by centrifugation at 18,000 g for 20 minutes at 4° C. and protein concentrations were determined by bicinchoninic acid (BCA) assay (ThermoFisher Scientific, Waltham, MA, USA).
For protein digestion, an equal amount of protein was taken from each sample. Proteins were reduced with 10 mM DTT for 10 minutes at 70° C. and alkylated with 25 mM iodoacetamide for 30 minutes in the dark. Tryptic digestion was performed with S-Trap™ method (Protifi, Farmingdale, NY, USA) overnight at 37° C. In brief, samples were mixed with 90% MeOH in 100 mM TEAB containing 10% (w/w) trypsin and loaded onto an in-house packed S-Trap microcolumns. Samples were washed with 90% MeOH in 100 mM TEAB, and digested in 100 mM TEAB for 16 hours at 37° C. The resulting peptides were spiked with five heavy-labeled IRAK4 peptides (Vivitide, LLC, Gardner, MA, USA) at 2 fmol each (column loading), desalted using C18 StageTip, SpeedVac dried, and kept at −80 C until nanoLC-MS/MS analysis.
Peptide analysis was performed on a nanoLC-MS/MS platform composed of a Q Exactive HF mass spectrometer coupled to an EASY-nLC 1200 (ThermoFisher Scientific). Peptides were separated on an EASY-Spray™ C18 column (50 cm×75 am, 2 am) (ThermoFisher Scientific) at 50° C. Mobile phases were 0.1% formic acid in water (A) and 80% acetonitrile, 0.1% formic acid (B). Peptides were eluted with a 100-min method over an effective 80 min gradient from […] to 45% B at a flow rate of 275 nL/min. Peptides were ionized with a spray voltage of 1,800 V. Mass spectrometric data were acquired at parallel reaction monitoring (PRM) mode including five pairs of light and heavy IRAK4 peptides (Table 7 below). […]

Row | IRAK4 change from vehicle (time 0 h) | IRAK4 change from vehicle (time 2 h) [%] | IRAK4 change from vehicle (time 24 h) [%] | IRAK4 change from vehicle (time 48 h) [%] | IRAK4 change from vehicle (time 96 h) [%] | SMILES
1 | +12% | −51 | −97 | −95 | −95 | CC(C)Oc1cc2nc([C@H]3CC[C@H](CN4CCC(c5ccc6c(c5)n(C)c(=O)n6C5CCC(=O)NC5=O)CC4)CC3)cn2cc1C(=O)Nc1cnn2cccnc12 (stereo partly shown) [Compound 48, 2-[4-[[4-[1-(2,6-dioxo-3-piperidyl)-3-methyl-2-oxo-benzimidazol-5-yl]-1-piperidyl]methyl]cyclohexyl]-7-isopropoxy-N-pyrazolo[1,5-a]pyrimidin-3-yl-imidazo[1,2-a]pyridine-6-carboxamide]
2 | −11% | −57 | −97 | −96 | −95 | CC(C)Oc1cc2nc([C@H]3CC[C@H](CN4CCC(c5ccc6c(c5)n(C)c(=O)n6C5CCC(=O)NC5=O)CC4)CC3)cn2cc1C(=O)Nc1cccn([C@H]2C[C@H]2F)c1=O (stereo partly drawn) [Compound 169, 2-((1R,4S)-4-((4-(1-(2,6-dioxopiperidin-3-yl)-3-methyl-2-oxo-2,3-dihydro-1H-benzo[d]imidazol-5-yl)piperidin-1-yl)methyl)cyclohexyl)-N-(1-((1S,2R)-2-fluorocyclopropyl)-2-oxo-1,2-dihydropyridin-3-yl)-7-isopropoxyimidazo[1,2-a]pyridine-6-carboxamide]
